One series concerns the target T1, SERT (Homo sapiens, UniProt P31645).
T1 construct: expressed in transfected cells; host or cells: HEK cell line overexpressing the transporter; membranes
Briefly: In vitro competition binding, membranes from HEK cell lines overexpressing SERT. Conditions: radioligand at its Kd concentration; IC50 only in FIG. 1A table. The source says: (§1) FIG. 1 depicts exemplary DB104 structure, preclinical result, and clinical trial design. […] In vitro Binding Result: Competition binding experiments were utilized to determine the in vitro binding potencies (IC50 values) of BMS-820836 for SERT, DAT, and NET. Membranes prepared from human embryonic kidney (HEK) cell lines overexpressing each transporter were employed in the assays. Radioligands were used at their respective affinity constant (Kd) concentrations for each transporter to enable direct comparisons of the IC50 values between assays. Monoamine Reupdate inhibition: Cell-based assays were used to determine the ability of BMS-820836 to inhibit reuptake of 3H-labeled dopamine ([^3H]DA), norepinephrine ([^3H]NE), and serotonin ([^3H]5-HT).

In series [1] the test system is patients with MDD. Briefly: Phase 2b efficacy studies CN162006 and CN162007, MADRS total score, analysed by rs12217173 genotype. Type of series: in vivo, human. As for the experimental part: The Phase 2b program for DB104 consists of two efficacy studies (CN162006 and CN162007), and both efficacy studies have a similar design and include patients with MDD. CN162006 is flexible-dose study where patients with a history of inadequate response to at least one but less than four antidepressants and one prospective treatment (duloxetine) are switched to flexibly-dosed DB104 (0.5-2 mg/d) or remain on duloxetine (Bhagwagar Z. et al. 2015). CN162007 is a fixed dose, dose-response study where patients with a history of inadequate response to at least one but less than four antidepressants and one prospective treatment (duloxetine/escitalopram) are switched to fixed doses of DB104 (0.25, 0.5, 1, 2 mg/day) or remain on duloxetine/escitalopram (FIG. 1B and 1C). […] (Bhagwagar Z. et al. 2015.)
We were provided with a large number of whole blood samples that were collected from the above phase II clinical trials (CN162-006 and CN162-007), and these samples corresponded to 233 unique patients that had received DB104 and completed the trial adequately to measure their response to treatment. Thus, germline DNA samples extracted from blood of patients enrolled in these two trials were used to identify pharmacogenetic biomarker for DB104. For the discovery phase, 188 samples were selected, and the remaining 45 samples would be left for validating any potential SNPs using PCR. The discover and validation datasets were balanced for race and dose/trial number. In discovery phase, 188 samples from DB104 treatment group were genotyped using the Illumina 4.5 million whole genome SNP arrays. Two (2) out of the 188 samples failed QC and were excluded from the genome-wide analysis but added to the validation set. From this genome wide screen from 186 samples, we have identified SNP rs12217173 which has a p-value of 6.609×10^−8, which is very close to genome-wide significance cut-off of 5×10^−8, especially given the limited sample size of this study.
To confirm the finding of rs12217173 as possible pharmacogenetic biomarker to predict DB104 efficacy, we next measured its genotype with Taqman SNP assay using the validation set which consists 47 patients, including two additional samples failed in genome-wide scan QC but passed real time PCR QC. […] Thus, patients with GG genotype were defined as the responders and patients carrying AA or AG genotype are defined as non-responders to DB104 treatment.
To examine whether rs12217173 is merely a prognostic biomarker for the disease instead of specific pharmacogenomic biomarker for DB104, DNA samples from 182 patients from the control group treated with duloxetine/escitalopram were genotyped using the Taqman SNP assays. […] Therefore, rs12217173 associated improvement in MADRS is related to DB104 treatment, and rs12217173 appears to be a pharmacogenomics biomarker for predicting DB104's anti-depression activity, and thus it is named as DGM4 (Denovo Genomic Marker 4).
CN162006 is flexible-dose study where DB104 doses ranged from 0.5-2 mg/d, and CN162007 is a fixed dose, dose-response study where patients were treated with doses of DB104 at 0.25, 0.5, 1, or 2 mg/day. Due to the limitation on samples available for the genome-wide study, the analysis described in previous section was not treating patients taking different doses of DB104 differently. In order to refine our analysis, we have further evaluated the effect of DB104 dose in these two studies. In CN162006, the mean and median average dose per day is 1.5 mg, and 94% patients received doses of 1 to 2 mg per day.

The conditions of series [2]: phase 2 clinical studies; cited from earlier work.
The subject of series [3] is patients with MDD. Conditions: overall population, CN162006 and CN162007; cited from earlier work.
In another series the target is T2, DAT (Homo sapiens, UniProt Q01959).
T2 construct: expressed in transfected cells; host or cells: HEK cell line overexpressing the transporter; membranes
T2 sequence (Q01959 whole entry): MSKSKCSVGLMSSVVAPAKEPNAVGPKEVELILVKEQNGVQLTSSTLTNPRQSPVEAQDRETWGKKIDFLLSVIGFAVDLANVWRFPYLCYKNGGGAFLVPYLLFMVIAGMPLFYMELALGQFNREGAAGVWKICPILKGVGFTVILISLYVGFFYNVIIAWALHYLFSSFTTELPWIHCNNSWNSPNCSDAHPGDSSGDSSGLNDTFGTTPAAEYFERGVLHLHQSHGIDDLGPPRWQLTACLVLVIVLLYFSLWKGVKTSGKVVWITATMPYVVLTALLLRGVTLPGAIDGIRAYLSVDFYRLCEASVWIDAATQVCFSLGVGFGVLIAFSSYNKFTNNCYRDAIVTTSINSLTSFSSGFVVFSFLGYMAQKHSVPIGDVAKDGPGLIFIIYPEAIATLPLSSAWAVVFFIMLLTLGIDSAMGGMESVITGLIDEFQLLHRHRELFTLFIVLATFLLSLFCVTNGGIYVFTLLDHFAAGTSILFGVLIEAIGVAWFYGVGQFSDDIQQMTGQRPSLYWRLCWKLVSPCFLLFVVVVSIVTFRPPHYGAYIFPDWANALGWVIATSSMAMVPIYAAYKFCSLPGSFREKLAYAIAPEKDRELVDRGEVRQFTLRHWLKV
Briefly: In vitro competition binding, membranes from HEK cell lines overexpressing DAT. To be noted: radioligand at its Kd concentration; IC50 only in FIG. 1A table.
Source text: as §1

The target in the next series is T3, NET (Homo sapiens, UniProt P23975).
T3 construct: expressed in transfected cells; host or cells: HEK cell line overexpressing the transporter; membranes
T3 sequence (P23975 whole entry): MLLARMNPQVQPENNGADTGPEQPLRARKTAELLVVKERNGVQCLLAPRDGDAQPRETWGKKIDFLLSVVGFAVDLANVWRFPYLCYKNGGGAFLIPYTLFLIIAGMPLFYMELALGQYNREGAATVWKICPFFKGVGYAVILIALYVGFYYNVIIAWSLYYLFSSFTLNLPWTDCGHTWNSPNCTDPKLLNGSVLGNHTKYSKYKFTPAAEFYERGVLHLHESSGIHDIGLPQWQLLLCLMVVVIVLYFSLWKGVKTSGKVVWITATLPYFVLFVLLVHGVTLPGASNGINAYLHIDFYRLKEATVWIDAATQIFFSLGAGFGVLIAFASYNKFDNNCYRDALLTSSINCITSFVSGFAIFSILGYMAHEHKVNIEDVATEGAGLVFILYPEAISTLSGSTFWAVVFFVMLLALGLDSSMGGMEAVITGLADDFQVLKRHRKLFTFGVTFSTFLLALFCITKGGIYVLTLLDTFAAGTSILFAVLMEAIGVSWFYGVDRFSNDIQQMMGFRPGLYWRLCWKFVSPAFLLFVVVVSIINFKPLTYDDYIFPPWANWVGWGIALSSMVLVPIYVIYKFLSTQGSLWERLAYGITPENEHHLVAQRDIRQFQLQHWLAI
In words: In vitro competition binding, membranes from HEK cell lines overexpressing NET. To be noted: radioligand at its Kd concentration; IC50 only in FIG. 1A table.
Source text: as §1

A further series addresses T4, HEK293/hDAT cells (Homo sapiens, UniProt Q01959).
T4 construct: expressed in transfected cells; host or cells: HEK293/hDAT cells
Briefly: Cell-based monoamine reuptake inhibition, [3H]DA uptake. Conditions: IC50 only in FIG. 1A table.
Source text: as §1

Another series concerns C. elegans. To be noted: oxidative stress; ANK3/unc-44 expression necessary; cited from earlier work.
[4] abbreviates: GG genotype, week 5 and 6, excluding 0.25 and 0.5 mg.

Structures are written as SMILES.

T4 sequence (Q01959 whole entry): as the sequence (Q01959 whole entry) above
T1 sequence (P31645 whole entry): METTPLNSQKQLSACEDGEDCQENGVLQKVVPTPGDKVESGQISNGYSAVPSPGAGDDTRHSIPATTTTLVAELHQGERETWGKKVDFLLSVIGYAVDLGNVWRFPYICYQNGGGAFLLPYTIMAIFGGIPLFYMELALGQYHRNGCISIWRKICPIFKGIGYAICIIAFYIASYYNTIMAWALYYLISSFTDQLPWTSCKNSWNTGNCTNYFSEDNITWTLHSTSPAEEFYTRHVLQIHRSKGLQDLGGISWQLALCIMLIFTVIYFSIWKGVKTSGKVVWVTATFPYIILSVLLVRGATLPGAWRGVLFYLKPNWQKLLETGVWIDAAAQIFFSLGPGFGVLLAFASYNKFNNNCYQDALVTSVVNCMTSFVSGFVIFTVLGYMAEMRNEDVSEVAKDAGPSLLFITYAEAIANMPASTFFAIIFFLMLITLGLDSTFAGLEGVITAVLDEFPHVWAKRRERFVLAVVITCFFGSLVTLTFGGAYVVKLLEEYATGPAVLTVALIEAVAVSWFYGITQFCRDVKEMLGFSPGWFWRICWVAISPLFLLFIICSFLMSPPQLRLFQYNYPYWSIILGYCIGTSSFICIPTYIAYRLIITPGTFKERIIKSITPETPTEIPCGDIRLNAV

For the molecule `CN1Cc2cc(-c3ccc(N)nn3)ccc2[C@H](c2ccc3ccccc3c2)C1` [DB104, liafensine], on SERT, the “saturation of SERT binding sites in competition binding” value is given as “completely saturated”. In the series with patients with MDD [1] (CN162007, 0.25, 0.5, 1, 2 mg/day), the “efficacy by dose in patients carrying GG genotype” value is 1 mg and 2 mg group exhibited similar efficacy, and both are much better than 0.25 mg and 0.5 mg group. Besides, in the series on patients with MDD [1] (setting [4]), the “MADRS Remission Rate vs SOC treatment group” value was “statistical significance”, the “MADRS Response Rate vs SOC treatment group” value was “statistical significance” and the “MADRS total score reduction vs SOC treatment group” value was “statistical significance”. In the series on patients with MDD [1] (discovery and validation datasets combined), the “MADRS score change, GG vs AA or AG genotype” value is listed as “much improved MADRS score change”. For the same molecule, in the series with patients with MDD [1] (discovery set (186 patients), GG allele of rs12217173), the “improvement on MADRS change from the baseline, GG vs AA or AG genotype and vs standard of care” value is on record as “much better improvement”. Further, the “MADRS, DB104 treatment group vs SOC treatment group” value in the series on patients with MDD [1] (pooled 006 and 007 at 1 mg and 2 mg, all genotypes, any time point) is “no significant differences”. Further, the “MADRS score reduction from the baseline” value in the series on patients with MDD [1] (validation set (47 patients), DB104-treated patients carrying GG at rs12217173) is reported as ~16 points. Moreover, the “MADRS score reduction from the baseline” value with patients with MDD [1] (validation set, DB104-treated patients carrying AA or AG genotype) is “eight”. Further, in series [2], the “discontinuations due to adverse events” value is listed as “no evidence of dose-dependent discontinuations due to adverse events” and the tolerability result is on record as “well tolerated”. Besides, the “MADRS total score change from baseline at week 6 (primary endpoint), DB104 vs. continuation of duloxetine/escitalopram” value in the series with patients with MDD [3] was “neither study demonstrated significant improvement”. Further, the “saturation of DAT binding sites in competition binding” value on DAT is on record as “completely saturated”. The “saturation of NET binding sites in competition binding” value at NET is reported as “completely saturated”. Further, the “inhibition of uptake of [3H]DA” value against HEK293/hDAT cells is “potently and completely inhibited”.

Take `CN1CCN2c3ccccc3Cc3ccccc3C2C1` (centres unmarked) [mianserin]: the lifespan entry in the series on C. elegans was “increase lifespan”.

Values taken from patent publication US12612661B2, “Compositions and methods for assessing the efficacy of inhibitors of neurotransmitter transporters” (DENOVO BIOPHARMA LLC, priority 2020, dated 2026).
